For data set [1], the species on record is Mus musculus. Description: Percent inhibition of nitric oxide (NO) production in lipopolysaccharide activated mouse peritoneal macrophages at 100 uM of compound. It counts as functional.
For data set [2], the species on record is Mus musculus. The data set can be described thus: Inhibitory concentration of compound on nitric oxide (NO) production in lipopolysaccharide activated mouse peritoneal macrophages. Format: functional.
Data set [3] is described as follows: Concentration with cytotoxic effect on mouse peritoneal macrophages.

A word on the Inhibition: it is the relative decrease from the control value, in per cent. One may read the IC50 as the point on the concentration scale where inhibition reaches its midpoint.

Consider `C=C[C@H](O)c1ccc(OC(C)=O)cc1`, for which the Inhibition in the data set filed under Mus musculus [1] stood at 46%. The IC50 in the data set listed under Mus musculus [2] (read-out: IC50) was greater than 100 µM. Consider `C=C[C@H](OC(C)=O)c1ccc(OC(C)=O)c(OC)c1`, for which, in the data set filed under Mus musculus [2] (read-out: IC50), the IC50 stood at 11 µM. Consider `CC[C@H](OC(C)=O)c1ccccc1`, for which, in the data set listed under Mus musculus [1], the Inhibition is 25%. Besides, the IC50 in the data set filed under Mus musculus [2] (read-out: IC50) is greater than 100 µM. Consider `C=CCc1ccc(OC)c(OC)c1` [METHYLEUGENOL], for which, in the data set listed under Mus musculus [1], the Inhibition worked out at 1%. Moreover, the IC50 in the data set filed under Mus musculus [2] (read-out: IC50) was greater than 100 µM.

As for `O=C/C=C/c1ccc(O)cc1` [p-HYDROXYCINNAMALDEHYDE], the IC50 in the data set listed under Mus musculus [2] (read-out: IC50) came out at 20 µM. On to `CC(=O)OC/C=C/c1ccc(OC(C)=O)cc1`, for which the half-maximal inhibitory concentration (IC50) in the data set listed under Mus musculus [2] (read-out: IC50) worked out at 19 µM. For `C=CC(O)c1ccccc1O` (configuration not stated), the Inhibition in the data set listed under Mus musculus [1] came out at 0%. Moreover, in the data set listed under Mus musculus [2] (read-out: IC50), the IC50 was greater than 100 µM. For the molecule `N=C(N)NCCSSCCNC(=N)N` [GUANIDINOETHYLDISULFIDE], the IC50 in the data set filed under Mus musculus [2] (read-out: IC50) stood at 7.4 µM. As for `O=C(O)/C=C/c1cccc(O)c1`, the Inhibition in the data set filed under Mus musculus [1] is reported as 3%. Further, in the data set filed under Mus musculus [2] (read-out: IC50), the IC50 was greater than 100 µM. The corresponding values for `O=C(O)/C=C/c1ccccc1O` [O-COUMARIC ACID] are 7% and greater than 100 µM. For the molecule `CCC(O)c1ccc(O)cc1` (configuration not stated), the Inhibition in the data set filed under Mus musculus [1] came out at 11%. Moreover, the half-inhibitory concentration (IC50) in the data set filed under Mus musculus [2] (read-out: IC50) was greater than 100 µM. Taken in the same sequence, the figures for `COc1cc(/C=C/C(=O)O)cc(OC)c1O` [SINAPINATE] were 27% and greater than 100 µM. As to `OC/C=C/c1ccc(O)cc1`, the Inhibition in the data set filed under Mus musculus [1] amounted to 24%. Also, the IC50 in the data set filed under Mus musculus [2] (read-out: IC50) is greater than 100 µM. Regarding `C=CCc1ccc(OC(C)=O)cc1`, the half-inhibitory concentration (IC50) in the data set filed under Mus musculus [2] (read-out: IC50) worked out at 65 µM. Turning to `C=C[C@H](O)c1ccccc1`, the Inhibition in the data set listed under Mus musculus [1] is listed as 19%. Further, the IC50 in the data set filed under Mus musculus [2] (read-out: IC50) is greater than 100 µM.

For `CCC(OC(C)=O)c1ccccc1OC(C)=O` (configuration not stated), the concentration for half-maximal inhibition (IC50) in the data set filed under Mus musculus [2] (read-out: IC50) came out at 99 µM.

In the case of `C=CC(OC(=O)CC)c1ccc(OC(=O)CC)cc1` (configuration not stated), the IC50 in the data set filed under Mus musculus [2] (read-out: IC50) was determined as 30 µM. With `C=CC(O)c1ccc(O)cc1` (configuration not stated), the Inhibition in the data set filed under Mus musculus [1] is -1%. Moreover, the IC50 in the data set listed under Mus musculus [2] (read-out: IC50) was greater than 100 µM. Regarding `CC[C@H](O)c1ccccc1`, the Inhibition in the data set listed under Mus musculus [1] is recorded as -4%. Also, the IC50 in the data set filed under Mus musculus [2] (read-out: IC50) was greater than 100 µM. Regarding `C=CCC(OC(C)=O)c1ccc(OC(C)=O)cc1` (configuration not stated), the IC50 in the data set listed under Mus musculus [2] (read-out: IC50) worked out at 9.2 µM. As to `C=CC(O)c1ccc(OC)cc1` (configuration not stated), in the data set filed under Mus musculus [1], the Inhibition is given as -3%. In addition, in the data set listed under Mus musculus [2] (read-out: IC50), the IC50 was greater than 30 µM. This molecule also gave a Cytotoxicity in data set [3] of 100 µM. Regarding `C=CC(OC(C)=O)c1ccccc1OC(C)=O` (configuration not stated), the IC50 in the data set filed under Mus musculus [2] (read-out: IC50) worked out at 3.2 µM. Same read-out and setting: in the case of `C=CC(OC(C)=O)c1ccc(OC(C)=O)cc1` (configuration not stated) it was 4.9 µM.

As to `COc1ccc(/C=C/C(=O)O)cc1` [4-METHOXYCINNAMIC ACID], in the data set listed under Mus musculus [1], the Inhibition was determined as 27%. The IC50 in the data set listed under Mus musculus [2] (read-out: IC50) is greater than 100 µM. Consider `C=CCc1ccc(O[C@@H]2O[C@H](CO)[C@@H](O)[C@H](O)[C@H]2O)cc1`, for which the Inhibition in the data set filed under Mus musculus [1] came out at 6%. Further, the IC50 in the data set filed under Mus musculus [2] (read-out: IC50) was greater than 100 µM. With `C=C[C@H](OC(C)=O)c1ccc(OC(C)=O)cc1` [1'-ACETOXYCHAVICOL ACETATE], the IC50 in the data set filed under Mus musculus [2] (read-out: IC50) was 2.3 µM.

With `C=CC(OC)c1ccc(OC)cc1` (configuration not stated), the Inhibition in the data set filed under Mus musculus [1] is on record as 22%. For the same molecule, the IC50 in the data set filed under Mus musculus [2] (read-out: IC50) is greater than 100 µM. As to `CC(=O)OC/C=C/c1ccc(O)cc1`, the 50% inhibitory concentration (IC50) in the data set filed under Mus musculus [2] (read-out: IC50) was 72 µM. With `CCCC(OC(C)=O)c1ccc(OC(C)=O)cc1` (configuration not stated), in the data set filed under Mus musculus [2] (read-out: IC50), the IC50 worked out at 47 µM.

For the molecule `C=CCc1ccc(O)c(O)c1` [HYDROXYCHAVICOL], in the data set listed under Mus musculus [2] (read-out: IC50), the IC50 amounted to 15 µM. As for `C=CC(OC(C)=O)c1cccc(OC(C)=O)c1` (configuration not stated), in the data set listed under Mus musculus [1], the Inhibition turned out to be 20%. In the data set filed under Mus musculus [2] (read-out: IC50), the IC50 is greater than 100 µM.

`CCC(=O)Oc1ccc(C(CC)OC(=O)CC)cc1` (configuration not stated): the IC50 in the data set filed under Mus musculus [2] (read-out: IC50) amounted to 59 µM. In turn, `CC(C)=O` [ACETONE] came in with an IC50 in the data set filed under Mus musculus [2] of 7.3 µg/mL. `C=CC(O)c1cccc(O)c1` (configuration not stated): the Inhibition in the data set listed under Mus musculus [1] stood at 1%. Further, the IC50 in the data set filed under Mus musculus [2] (read-out: IC50) is greater than 100 µM.

Regarding `O=C(/C=C/c1ccc(O)c(O)c1)OCCc1ccccc1` [CAFFEIC ACID PHENETHYL ESTER], the IC50 in the data set listed under Mus musculus [2] (read-out: IC50) amounted to 15 µM. For the molecule `C=CCc1ccc(O)cc1` [CHAVICOL], in the data set filed under Mus musculus [1], the Inhibition is given as 43%. Moreover, in the data set filed under Mus musculus [2] (read-out: IC50), the IC50 is greater than 100 µM.

For the molecule `C=CCc1ccc(O)c(OC)c1` [EUGENOL], the Inhibition in the data set filed under Mus musculus [1] worked out at 15%. Also, in the data set listed under Mus musculus [2] (read-out: IC50), the 50% inhibitory concentration (IC50) was greater than 100 µM. Taken in the same sequence, the figures for `O=C(O)/C=C/c1ccc(O)c(O)c1` [CAFFEIC ACID] were 15% and greater than 100 µM. Regarding `O=C(O)/C=C/c1ccccc1` [CINNAMIC ACID], the Inhibition in the data set filed under Mus musculus [1] is listed as 15%. For the same molecule, the half-maximal inhibitory concentration (IC50) in the data set filed under Mus musculus [2] (read-out: IC50) is greater than 100 µM. Taken in the same sequence, the figures for `C=CCC(O)c1ccc(O)cc1` (configuration not stated) were 13% and greater than 100 µM.

For `COc1ccc(/C=C/C(=O)O)cc1OC` [O,O'-DIMETHYLCAFFEIC ACID], the Inhibition in the data set listed under Mus musculus [1] worked out at 1%. For the same molecule, in the data set listed under Mus musculus [2] (read-out: IC50), the half-maximal inhibitory concentration (IC50) is greater than 100 µM. Take `C=C[C@H](OC(C)=O)c1ccccc1`: in the data set listed under Mus musculus [1], the Inhibition is reported as 20%. Besides, the IC50 in the data set listed under Mus musculus [2] (read-out: IC50) is greater than 100 µM. Regarding `CCC(OC(C)=O)c1ccc(OC(C)=O)cc1` (configuration not stated), the concentration for half-maximal inhibition (IC50) in the data set filed under Mus musculus [2] (read-out: IC50) was 10 µM. As for `C=C[C@@H](OC(C)=O)c1ccc(OC(C)=O)cc1`, in the data set filed under Mus musculus [2] (read-out: IC50), the IC50 came out at 8.2 µM. With `C=CC(OC(C)=O)c1cccc(O)c1` (configuration not stated), the Inhibition in the data set listed under Mus musculus [1] is 25%. Further, in the data set listed under Mus musculus [2] (read-out: IC50), the IC50 is greater than 100 µM.

The values are drawn from ChEMBL document CHEMBL1143515, “Structure-activity relationships of 1'S-1'-acetoxychavicol acetate for inhibitory effect on NO production in lipopolysaccharide-activated mouse peritoneal macrophages” (Bioorg Med Chem Lett, 2005).
